Results taken from patent publication US4568490A, “Aminopropylaminobleomycin derivatives and process for preparation thereof” (Zaidan Hojin Biseibutsu Kagaku Kenkyu Kai, priority 1981, dated 1986).

Key:
ICR mice = assay: Pulmonary toxicity (pulmonary fibrosis) in mice, intratracheal instillation; assay type: in vivo; conditions: 16 μg/50 μl/mouse intratracheally, sacrificed 4 weeks after instillation; for Grade: total score of pulmonary fibrosis/total number of samples: score 0-6 points
Protocol: Male 15 weeks old ICR mice were used. Sixteen μg/50 μl/mouse of each test sample was intratracheally instilled. The mice were sacrificed 4 weeks after instillation to examine the incidence and grade of pulmonary fibrosis. The evaluation was made by comparing the number of administered mice suffering from pulmonary fibrosis and the grade of the disease.
(§1) In Tables 4A and 4B, the grade was numerically rated as follows:
(§2) 1 point: Accumulation of exudate in pulmonary alveoli and fibrosis-like change in alveolar septum.
(§3) 2 points: Fibrosis in several areas.
(§4) 4 points: Scattered fibrosis.
(§5) 6 points: Fibrosis in more than two-thirds of the total area.

[1] = tested on: Mycobacterium smegmatis ATCC 607; assay: Antimicrobial activity, agar plate-cylinder method; assay type: cell-based; conditions: Cu-free form; bleomycin A2 (Cu-free form) standard assumed 1,000 mcg/mg
Protocol: (§6) The activity was assayed against the above test microorganisms by the method of agar plate-cylinder, assuming the potency of bleomycin A2 (Cu-free form), used as standard, to be 1,000 mcg/mg.

ICR strain mice = assay: Pulmonary toxicity (pulmonary fibrosis) in mice, intraperitoneal injection; assay type: in vivo; conditions: 5 mg/kg i.p. once a day for 10 days; for Grade of pulmonary fibrosis, % / Incidence of pulmonary fibrosis, % / Incidence: number of mice suffering from pulmonary fibrosis / Grade: total score of pulmonary fibrosis/total number of test animal: autopsy after 5 weeks; for Incidence: number of mice suffering from pulmonary fibrosis: affected/total mice; for Grade: total score of pulmonary fibrosis/total number of test animal: score 0-6 points; for Grade of pulmonary fibrosis, Ratio / Incidence of pulmonary fibrosis, Ratio: reference of the ratio not stated
Protocol: (3) Pulmonary toxicity (pulmonary fibrosis) in mice.
ICR strain mice (male; 15 weeks old; 9 mice per group) were used. Each mouse was administered with a daily dose of 5 mg/kg of the test sample by intraperitoneal injection, once a day, for 10 consecutive days. After completion of the predetermined administration, the mice were kept for 5 weeks under observation, then slaughtered, and autopsied to examine the incidence and grade of pulmonary fibrosis. The evaluation was made by comparing the number of administered mice suffering from pulmonary fibrosis and the grade of the disease.
as §1, §2, §3, §4, §5

Bacillus subtilis = assay: Antimicrobial activity, agar plate-cylinder method; assay type: cell-based; conditions: Cu-free form; bleomycin A2 (Cu-free form) standard assumed 1,000 mcg/mg
Protocol: (1) Antimicrobial activity against Mycobacterium smegmatis ATCC 697 and Bacillus subtilis.
as §6

Hela S3 cells = assay: Growth inhibitory activity against Hela S3 cells; assay type: cell-based; conditions: Cu-free form; Hela S3, 3 days incubation with compound
Protocol: The percentage growth inhibition was calculated using the equation: […] wherein A is the ultimate number of cells on the third day from the addition of a test sample, B is the ultimate number of cells in the control (without the addition of test sample), and C is the number of cells on the day of addition of the test sample.

In the case of `Cc1c(N)nc(C(CC(N)=O)NCC(N)C(N)=O)nc1C(=O)NC(C(=O)NC(C)C(O)C(C)C(=O)NC(C(=O)NCCc1nc(-c2nc(C(=O)NCCCN(C)CCCNCc3ccc([N+](=O)[O-])cc3)cs2)cs1)C(C)O)C(OC1OC(CO)C(O)C(O)C1OC1OC(CO)C(O)C(OC(N)=O)C1O)c1cnc[nH]1` (stereo not drawn) [MNBZ, 3-(N-methyl-N-3-p-nitro-benzylamino-propyl)aminopropylamino-bleomycin, reference compound], the “Grade of pulmonary fibrosis, %” value (ICR mice) is reported as 104%, the “Incidence of pulmonary fibrosis, %” value (ICR mice) is reported as 89% and the “Incidence: number of mice with pulmonary fibrosis/number of mice” value (ICR mice) is reported as 8/9. For the same molecule, the “Grade: total score of pulmonary fibrosis/total number of samples” value (ICR mice) was 28/27.

`Cc1c(N)nc(C(CC(N)=O)NCC(N)C(N)=O)nc1C(=O)NC(C(=O)NC(C)C(O)C(C)C(=O)NC(C(=O)NCCc1nc(-c2nc(C(=O)NCCCNC(C)c3ccccc3)cs2)cs1)C(C)O)C(OC1OC(CO)C(O)C(O)C1OC1OC(CO)C(O)C(OC(N)=O)C1O)c1c[nH]cn1` [PEP, 3-[(S)-1'-phenylethylamino]propylamino-bleomycin, reference compound] was tested, and the “Grade of pulmonary fibrosis, %” value (ICR mice) was 150%, the “Incidence of pulmonary fibrosis, %” value (ICR mice) was 75% and the “Incidence: number of mice with pulmonary fibrosis/number of mice” value (ICR mice) was 6/8. For the same molecule, the “Grade: total score of pulmonary fibrosis/total number of samples” value (ICR mice) was 36/24.

For `Cc1c(N)nc(C(CC(N)=O)NCC(N)C(N)=O)nc1C(=O)NC(C(=O)NC(C)C(O)C(C)C(=O)NC(C(=O)NCCc1nc(-c2nc(C(=O)NCCCNCCCNC(C)c3ccccc3)cs2)cs1)C(C)O)C(OC1OC(CO)C(O)C(O)C1OC1OC(CO)C(O)C(OC(N)=O)C1O)c1cnc[nH]1` (stereo not drawn) [PEPP, 3-[3-(N-1-phenylethyl)aminopropyl]aminopropylamino-bleomycin, reference compound], the “Grade of pulmonary fibrosis, %” value (ICR mice) was 56%, the “Incidence of pulmonary fibrosis, %” value (ICR mice) was 89% and the “Incidence: number of mice with pulmonary fibrosis/number of mice” value (ICR mice) was 8/9. The “Grade: total score of pulmonary fibrosis/total number of samples” value (ICR mice) was 15/27.

In the case of `Cc1c(N)nc(C(CC(N)=O)NCC(N)C(N)=O)nc1C(=O)NC(C(=O)NC(C)C(O)C(C)C(=O)NC(C(=O)NCCc1nc(-c2nc(C(=O)NCCCN(C)CCCNCCc3ccc(Cl)cc3)cs2)cs1)C(C)O)C(OC1OC(CO)C(O)C(O)C1OC1OC(CO)C(O)C(OC(N)=O)C1O)c1cnc[nH]1` (stereo not drawn) [compound 1, 3-{N--Methyl-N--[3'-(2"-p-chlorophenylethylamino)propyl]amino}propylaminoBLM], the “Antimicrobial potency of Cu--free compound, against Mycobacterium smegmatis ATCC 607” value [1] is reported as 16800 mcg potency per mg, the “Grade of pulmonary fibrosis, %” value (ICR strain mice) is reported as 11% and the “Incidence of pulmonary fibrosis, %” value (ICR strain mice) is reported as 22%. For the same molecule, the “Incidence: number of mice suffering from pulmonary fibrosis” value (from here on “Incidence: number of mice suffering”) (ICR strain mice) was 2/9, the “Grade: total score of pulmonary fibrosis/total number of test animal” value (ICR strain mice) was 3/27 and the “Grade of pulmonary fibrosis, Ratio” value (ICR strain mice) was 0.13. The “Incidence of pulmonary fibrosis, Ratio” value (ICR strain mice) was 0.35, the “Antimicrobial potency of Cu--free compound, against Bacillus subtilis” value (Bacillus subtilis) was 13266 mcg potency per mg and the “50% growth inhibition concentration (ID50) of Cu--free compound against cultured Hela cell” value (Hela S3 cells) was 0.54 µg/mL.

In the case of `Cc1c(N)nc(C(CC(N)=O)NCC(N)C(N)=O)nc1C(=O)NC(C(=O)NC(C)C(O)C(C)C(=O)NC(C(=O)NCCc1nc(-c2nc(C(=O)NCCCN(C)CCCNCc3ccc(C#N)cc3)cs2)cs1)C(C)O)C(OC1OC(CO)C(O)C(O)C1OC1OC(CO)C(O)C(OC(N)=O)C1O)c1cnc[nH]1` (stereo not drawn) [compound 18, 3-{N--Methyl-N--[3'-(p-cyanobenzylamino)propyl]amino}propylaminoBLM], the “Antimicrobial potency of Cu--free compound, against Mycobacterium smegmatis ATCC 607” value [1] is reported as 3163 mcg potency per mg, the “Grade of pulmonary fibrosis, %” value (ICR strain mice) is reported as 0% and the “Incidence of pulmonary fibrosis, %” value (ICR strain mice) is reported as 0%. For the same molecule, the “Incidence: number of mice suffering” value (ICR strain mice) was 0/9, the “Grade: total score of pulmonary fibrosis/total number of test animal” value (ICR strain mice) was 0/27 and the “Grade of pulmonary fibrosis, Ratio” value (ICR strain mice) was 0.00. The “Incidence of pulmonary fibrosis, Ratio” value (ICR strain mice) was 0.00, the “Antimicrobial potency of Cu--free compound, against Bacillus subtilis” value (Bacillus subtilis) was 4347 mcg potency per mg and the “50% growth inhibition concentration (ID50) of Cu--free compound against cultured Hela cell” value (Hela S3 cells) was 1.10 µg/mL.

In the case of `Cc1c(N)nc(C(CC(N)=O)NCC(N)C(N)=O)nc1C(=O)NC(C(=O)NC(C)C(O)C(C)C(=O)NC(C(=O)NCCc1nc(-c2nc(C(=O)NCCCN(C)CCCNCC3CCCC3)cs2)cs1)C(C)O)C(OC1OC(CO)C(O)C(O)C1OC1OC(CO)C(O)C(OC(N)=O)C1O)c1cnc[nH]1` (stereo not drawn) [compound 28, 3-{N--Methyl-N--[3'-(cyclopentylmethylamino)propyl]amino}propylaminoBLM], the “Antimicrobial potency of Cu--free compound, against Mycobacterium smegmatis ATCC 607” value [1] is reported as 13595 mcg potency per mg, the “Antimicrobial potency of Cu--free compound, against Bacillus subtilis” value (Bacillus subtilis) is reported as 16180 mcg potency per mg and the “50% growth inhibition concentration (ID50) of Cu--free compound against cultured Hela cell” value (Hela S3 cells) is reported as 1.00 µg/mL.

In the case of `Cc1c(N)nc(C(CC(N)=O)NCC(N)C(N)=O)nc1C(=O)NC(C(=O)NC(C)C(O)C(C)C(=O)NC(C(=O)NCCc1nc(-c2nc(C(=O)NCCCN(C)CCCNCC3CCCCC3)cs2)cs1)C(C)O)C(OC1OC(CO)C(O)C(O)C1OC1OC(CO)C(O)C(OC(N)=O)C1O)c1cnc[nH]1` (stereo not drawn) [compound 29, 3-{N--Methyl-N--[3'-(cyclohexylmethylamino)propyl]amino}propylaminoBLM], the “Antimicrobial potency of Cu--free compound, against Mycobacterium smegmatis ATCC 607” value [1] is reported as 15414 mcg potency per mg, the “Antimicrobial potency of Cu--free compound, against Bacillus subtilis” value (Bacillus subtilis) is reported as 12148 mcg potency per mg and the “50% growth inhibition concentration (ID50) of Cu--free compound against cultured Hela cell” value (Hela S3 cells) is reported as 0.63 µg/mL.

`Cc1c(N)nc(C(CC(N)=O)NCC(N)C(N)=O)nc1C(=O)NC(C(=O)NC(C)C(O)C(C)C(=O)NC(C(=O)NCCc1nc(-c2nc(C(=O)NCCCN(C)CCCNCCC3CCCCC3)cs2)cs1)C(C)O)C(OC1OC(CO)C(O)C(O)C1OC1OC(CO)C(O)C(OC(N)=O)C1O)c1cnc[nH]1` (stereo not drawn) [compound 30, 3-{N--Methyl-N--[3'-(cyclohexylethylamino)propyl]amino}propylaminoBLM] was tested, and the “Antimicrobial potency of Cu--free compound, against Mycobacterium smegmatis ATCC 607” value [1] was 35030 mcg potency per mg, the “Antimicrobial potency of Cu--free compound, against Bacillus subtilis” value (Bacillus subtilis) was 14440 mcg potency per mg and the “50% growth inhibition concentration (ID50) of Cu--free compound against cultured Hela cell” value (Hela S3 cells) was 0.56 µg/mL.

`Cc1c(N)nc(C(CC(N)=O)NCC(N)C(N)=O)nc1C(=O)NC(C(=O)NC(C)C(O)C(C)C(=O)NC(C(=O)NCCc1nc(-c2nc(C(=O)NCCCN(C)CCCNCC3CCCCCC3)cs2)cs1)C(C)O)C(OC1OC(CO)C(O)C(O)C1OC1OC(CO)C(O)C(OC(N)=O)C1O)c1cnc[nH]1` (stereo not drawn) [compound 31, 3-{N--Methyl-N--[3'-(cycloheptylmethylamino)propyl]amino}propylaminoBLM] was tested, and the “Antimicrobial potency of Cu--free compound, against Mycobacterium smegmatis ATCC 607” value [1] was 25924 mcg potency per mg, the “Antimicrobial potency of Cu--free compound, against Bacillus subtilis” value (Bacillus subtilis) was 20143 mcg potency per mg and the “50% growth inhibition concentration (ID50) of Cu--free compound against cultured Hela cell” value (Hela S3 cells) was 0.48 µg/mL.

In the case of `Cc1c(N)nc(C(CC(N)=O)NCC(N)C(N)=O)nc1C(=O)NC(C(=O)NC(C)C(O)C(C)C(=O)NC(C(=O)NCCc1nc(-c2nc(C(=O)NCCCN3CCN(CCCNCc4ccc(Cl)cc4)CC3)cs2)cs1)C(C)O)C(OC1OC(CO)C(O)C(O)C1OC1OC(CO)C(O)C(OC(N)=O)C1O)c1cnc[nH]1` (stereo not drawn) [compound 44, 3-[4-(3-p-Chlorobenzylaminopropyl)piperazin-l-yl]propylaminoBLM], the “Antimicrobial potency of Cu--free compound, against Mycobacterium smegmatis ATCC 607” value [1] is reported as 11350 mcg potency per mg, the “Grade of pulmonary fibrosis, %” value (ICR strain mice) is reported as 0% and the “Incidence of pulmonary fibrosis, %” value (ICR strain mice) is reported as 0%. For the same molecule, the “Incidence: number of mice suffering” value (ICR strain mice) was 0/9, the “Grade: total score of pulmonary fibrosis/total number of test animal” value (ICR strain mice) was 0/27 and the “Grade of pulmonary fibrosis, Ratio” value (ICR strain mice) was 0.00. For the same molecule, the “Incidence of pulmonary fibrosis, Ratio” value (ICR strain mice) was 0.00, the “Antimicrobial potency of Cu--free compound, against Bacillus subtilis” value (Bacillus subtilis) was 6080 mcg potency per mg and the “50% growth inhibition concentration (ID50) of Cu--free compound against cultured Hela cell” value (Hela S3 cells) was 0.31 µg/mL.
